Experiments:
[1] = tested on: murine leukemia L1210 cells; assay: Cell fragmentation after ultrasound (Coulter particle size distribution); format: cell-based; settings: 6 μM sensitizer, 15 min loading at 37° C., only intracellular texaphyrin; ultrasound 1.94 MHz, 3.9 W/cm^2
Protocol: (§1) The effect of low-level, non-thermal ultrasound on the murine leukemia L1210 cell line in culture, measuring ultrasound-induced cytotoxicity is determined by a modification of the procedure initially described by Kessel et al., 1994. Int. J. Radiat. Biol., 66 (1994). Sonodynamic therapy with and without a texaphyrin and with and without low intensity irradiation of ultrasound. A murine 1210 cell line was used, The cytotoxicity of low-intensity ultrasound on murine leukemia L1210 cells is associated with cell fragmentation, and was detected by measuring the inhibition of the active transport of a non-metabolized amino acid (cytoleucine) and by a viability assay.
(§2) Cell Culture Systems—Murine leukemia L1210 cells were grown in Fischer's medium (GIBCO, Grand Island, N.Y.) supplemented with glutamine, 10% horse serum and gentamicin. All operations were carried out at 37° C. […]
(§3) Fragmentation and Viability Studies—Cell counts and the particle size distribution were determined with a Coulter Electronics ZM Particle Analyzer and Model 256 Channelyzer. The Channelyzer determines the mean particle volume; intact cells were detected in channels 80-110. […] Cell counts were again determined after incubation for sufficient time to allow the number of control (untreated) cells to reach 20,000/ml, approximately 5 doublings.

[2] = tested on: Colon 26 tumor cells; assay: Experimental kidney tumor assay of sonodynamic sensitizing activity; format: in vivo, mouse; settings: 1.0 mg/kg i.v., ultrasound 24 hours later, 5 minutes, 0.5 and 1 MHz, 8 W/cm^2; sacrifice after 7 days
Protocol: In vivo activity for sonodynamic therapy is determined, e.g., by post-mortum histological examination of tumor tissue by hematoxylin and eosin, as described in Yumita et al., Cancer Letters 112 (1997). The antitumor effects of sonodynamic therapy are evaluated by implanting tumor cells into one kidney in a mouse (the other kidney remaining untreatd and serving as a control). Approximately 24 hours after intravenous administration of a sonodynamic sensitizer to be tested, the mouse is anesthesized and the tumorous kidney exteriorized. The position and the angle of the mouse are adjusted to facilitate ultrasound ultrasound penetration of the entire kidney, with the tumor at the focal spot. Ultrasound is delivered in continuous waves by a focused array transducer, the kidney is returned to the abdominal cavity and the abdomen is closed. After 7 days the mouse is sacrificed and the kidneys stained with hematoxylin and eosin for histologic examination. The tumor bearing and control kidneys are compared.
This procedure is a modification of a procedure initially described by Yumita et al., Cancer Letters 112 (1997).
Colon 26 tumor cells are implanted into one kidney in a male CDF mouse (the other kidney remaining untreated and serving as a control). After 14 days, 1.0 mg/kg of a texaphyrin is administered by intravenous injection. 24 Hours later, the mouse is anesthetized and the tumorous kidney exteriorized. The position and the angle of the mouse are adjusted to facilitate ultrasound ultrasound penetration of the entire kidney, with the tumor at the focal spot. Ultrasound is delivered in continuous waves by a focused array transducer. The tumor is exposed to focused ultrasound for 5 minutes in a progressive wave mode, at a frequency of 0.5 MHz for the first wave and 1 MHz for the second wave, at an intensity of 8 W/cm^2 followed by the second-harmonic superimposition of ultrasound at the same intensity, for a total exposure of 5 minutes. The kidney is returned to the abdominal cavity and the abdomen is closed. […]

[3] = tested on: murine leukemia L1210 cells; assay: Viability (growth) assay after ultrasound; format: cell-based; settings: for Viability: 6 μM sensitizer, 15 min loading at 37° C., only intracellular texaphyrin, ultrasound 1.94 MHz, 3.9 W/cm^2; for potentiation of the cytotoxic effect of ultrasound: cells previously exposed to 6 μM, ultrasound at 3.9 W/cm
Protocol: as §1
Cell Culture Systems—Murine leukemia L1210 cells were grown in Fischer's medium (GIBCO, Grand Island, N.Y.) supplemented with glutamine, 10% horse serum and gentamicin. All operations were carried out at 37° C. Exponentially growing cells were collected by centrifugation, resuspended (5×10^6 cells/ml) in serum-free Fischer's medium buffered to pH 7.0 with 20 mM HEPES.
Sensitizers—Lutetium Texaphyrin (Lu-Tex or PCI-0123) and Gadolinium Texaphyrin (Gd-Tex or PCI-0120) were dissolved in water at a concentration of 6 μM.
Test Groups—Four groups of cells were established: Control A (no sensitizer and no ultrasound), Control B (no sensitizer, with ultrasound); 6 μM Lu-Tex with ultrasound, and 6 μM Gd-Tex with ultrasound. A small volume of the respective sensitizers were added to the Lu-Tex and Gd-Tex groups followed by a loading incubation of 15 minutes at 37° C. The cells were then suspended in fresh (serum free) medium, such that only intracellular texaphyrin remained.
Ultrasound—Exposure of cell suspensions (except Control A) to ultrasound was carried out in 2.5 cm diameter petri dishes in a bath of degassed water. A 2.54-cm-diameter transducer (Valpey-Fisher) was driven by a power amplifier (ENI 240L) with a continuous wave 1.94 MHz sinusoidal signal source (Wavetek Model 23). The acoustic field was calibrated with a Marconi PVDF membrane hydrophone in a free field condition 3.0 cm from the surface of the transducer which is also the distance from the face to the exposure dish. The acoustic intensity, expressed in terms of the spatial peak temporal average (SPTA), was 3.9 W/cm^2.
as §3, with “80-110. Smaler particles represent debris resulting from cell fragmentation.” for “80-110.”

[4] = tested on: murine leukemia L1210 cells; assay: Amino acid (cytoleucine) transport after ultrasound in L1210 cells; format: cell-based; settings: 6 μM sensitizer, 15 min loading at 37° C., only intracellular texaphyrin; ultrasound 1.94 MHz, 3.9 W/cm^2
Protocol: as §1, §2
Amino Acid Transport—The effect of ultrasound on the capacity of L1210 cells for concentrative accumulation of the non-metabolized amino-acid cytoleucine was assesed as a probe for damage to membrane […] systems. […] After 15 minutes, the cells were collected by centrifugation, washed with isotonic NaCl and cell radioactivity determined by liquid scintillation counting. […]

[5] = Maximum tolerated dose study; format: in vivo; settings: determined in one study; intravenous injection
Protocol: For example, Lutetium Texaphyrin is administered in solution containing 2 mg/ml optionally in 5% mannitol, USP. Dosages of about 1.0 or 2.0 mg/kg to about 4.0 or 5.0 mg/kg, preferably 3.0 mg/kg may be employed, up to a maximum tolerated dose that was determined in one study to be 5.2 mg/kg. The texaphyrin is administered by intravenous injection, followed by a waiting period of from as little as several minutes or about 3 hours to as long as about 72 or 96 hours (depending on the treatment being effected) to facilitate intracellular uptake and clearance from the plasma and extracellular matrix prior to the administration of the sonodynamic agent. The co-administration of a sedative (e.g., benzodiazapenes) and narcotic analgesic are sometimes recommended prior to topical (as opposed to intravascular) light treatment. Topical administration. of Emla cream (lidocaine, 2.5% and prilocaine, 2.5%) under an occlusive dressing and other intradermal, subcutaneous and topical anesthetics may also be employed as necessary to reduce discomfort. Similar patient comfort considerations may apply in sonodynamic therapy, as will be apparent to the treating physician. Subsequent treatments can be provided after suitable time interval, currently approximately 21 days. […]

| Compound | Fragmentation [1] | comparison of tumor-bearing and control kidneys (histologic examination) [2] | Viability [3] | potentiation of the cytotoxic effect of ultrasound [3] | Amount of Cytoleucene Transported [4] | maximum tolerated dose [5] [mg/kg] |
| --- | --- | --- | --- | --- | --- | --- |
| CC(=O)[O-].CC(=O)[O-].CCc1c(CC)c2cc3nc(cnc4cc(OCCOCCOCCOC)c(OCCOCCOCCOC)cc4ncc4nc(cc1[n-]2)C(CCCO)=C4C)C(C)=C3CCCO.O.[Gd+3] [Gd-Tex, Gadolinium Texaphyrin] | 64 ± 4 | substantially the same | 42 ± 5 | substantial potentiation | 3.2 ± 0.4 | – |
| CC(=O)[O-].CC(=O)[O-].CCc1c(CC)c2cc3nc(cnc4cc(OCCOCCOCCOC)c(OCCOCCOCCOC)cc4ncc4nc(cc1[n-]2)C(CCCO)=C4C)C(C)=C3CCCO.O.[Lu+3] [Lu-Tex, Lutetium Texaphyrin] | 73 ± 6 | substantially the same | 24 ± 3 | substantial potentiation | 2.8 ± 0.3 | 5.2 |
| yttrium texaphyrin | – | substantially the same | – | – | – | – |

Reference: patent US20010002251A1, “Intracellular sensitizers for sonodynamic therapy” (Pharmacyclics, Inc., priority 1998, published 2001)
